From patent US9446027B2, “Use of pidotimod to treat irritable bowel syndrome” (POLICHEM SA, priority 2013, dated 2016)
Square brackets hold non-standard residues; d marks the D form. Peptide text beside a SMILES is read from it. pGlu = O=C1CC[C@@H](C(=O)O)N1; Thz = O=C(O)[C@@H]1CSCN1

System: irritable bowel syndrome
Assay: Open label pilot trial in patients with IBS: overall and extracolonic IBS scores
Format: in vivo, human
Conditions: nine IBS patients, oral solution of Example 4 twice a day, after 12 weeks
Source text: Nine patients with IBS aged 25 to 60 years (5 female) were enrolled in an open label pilot trial to receive twice a day the composition as per the Example 4. IBS was diagnosed according to Rome II criteria for the diagnosis of IBS (Rasquin-Weber A: Childhood functional gastrointestinal disorders, Gut 1999;45 (Suppl II): II60-II68). Rome II Criteria for the Diagnosis of IBS: at least 12 weeks, which need not be consecutive, in the preceding 12 months of abdominal discomfort or pain that has at least two of the following three features: • 1. Relieved by defecation. • 2. Onset associated with changes in stool frequency. • 3. Onset associated with changes in stool form.
The overall IBS scores (IBS Symptoms, Pain severity, Pain frequency, Bloating, Bowel habit dissatisfaction, Life interference) and extracolonic IBS scores were assessed at 4, 8, and 12 weeks during treatment.

O=C1CC[C@@H](C(=O)N2CSC[C@H]2C(=O)O)N1 [Pidotimod, (4R)-3-(5-oxo-L-prolyl)-1,3-thiazolidine-4-carboxylic acid] ([pGlu]-[Thz]-OH)
post-treatment overall extracolonic IBS score (baseline 240, P<0.001): 90
overall IBS score (IBS Symptoms, Pain severity, Pain frequency, Bloating, Bowel habit dissatisfaction, Life interference) (baseline 315, P<0.05): 175
